Laboratory results from patent US9005575B2, “Arg-Gly-Asp-conjugated alpha-melanocyte stimulating hormone hybrid peptide for use in diagnosing and treating melanoma, including metastatic melanoma and methods related to same” (STC.UNM, priority 2009, dated 2015).
Positions of bridges follow the written chain, without caps; N, C: chain ends. Non-standard residues stand in square brackets, D forms with d. Residues, ends and D or L forms follow the SMILES beside them.

What was measured:
[1] = Stability in mouse serum monitored by RP-HPLC; type: in vitro ADME; conditions: 37° C., 24 h
Procedure: RGD-Lys-(Arg^11)CCMSH was radiolabeled with ^99mTc via a glucoheptonate transchelation reaction using methods described previously (7). Briefly, 100 μl of 2 mg/ml SnCl2 in 0.2 M glucoheptonate aqueous solution and 200 μl of fresh ^99mTcO4^− solution (1-4 mCi) were added into a reaction vial and incubated at room temperature (25° C.) for […] to form ^99mTc-glucoheptonate. Then, 10 μl of 1 mg/ml RGD-Lys-(Arg^11)CCMSH aqueous solution was added into the reaction vial and the pH of the reaction mixture was adjusted to 8.5 with 0.1 M NaOH. The reaction mixture was incubated at 75° C. for 40 min. […] The stability of ^99mTc-RGD-Lys-(Arg^11)CCMSH was determined by incubation in mouse serum at 37° C. according to the published procedure (27) for various time periods, and monitored for degradation by RP-HPLC.
RGD-Arg-(Arg^11)CCMSH was radiolabeled with ^99mTc via a glucoheptonate transchelation reaction using methods described previously (17). […] The stability of ^99m Tc-RGD-Arg-(Arg^11)CCMSH was determined by incubation in mouse serum at 37° C. according to the published procedure (17) for various time periods, and monitored for degradation by RP-HPLC.

[2] = Effect of L-lysine co-injection on renal and tumor uptakes; type: in vivo, C57 mice; conditions: 15 mg of L-lysine, 2 h post-injection; for tissue uptake at 2 h: C57, mouse, kidneys, with L-lysine, 15 mg co-injected, total radioactivity
Procedure: The effects of L-lysine co-injection on the renal uptakes of ^99mTc-RGD-Arg-(Arg^11)CCMSH and ^99mTc-RGD-Lys-(Arg^11)CCMSH was examined in B16/F1 melanoma-bearing C57 as well. Two groups of 5 mice were injected with an aqueous mixture of 0.037 MBq of ^99mTc-RGD-Arg-(Arg^11)CCMSH and 15 mg of L-lysine or an aqueous mixture of 0.037 MBq of ^99mTc-RGD-Lys-(Arg^11)CCMSH and 15 mg of L-lysine, respectively. The mice were sacrificed at 2 h post-injection, and tumors and kidneys were harvested, weighed and counted.

Stability in mouse serum [1]	Effect of L-lysine co-injection on the tumor uptake [2]	Reduction of renal uptake by L-lysine co-injection [2]	tissue uptake at 2 h [2]	SMILES
stable	without affecting	27.7%	31.1 ± 6.42 %ID/g	CC(C)[C@H](NC(=O)[C@@H]1CCCN1C(=O)[C@H](CCCNC(=N)N)NC(=O)[C@H](CS)NC(=O)[C@H](Cc1c[nH]c2ccccc12)NC(=O)[C@H](CCCNC(=N)N)NC(=O)[C@@H](Cc1ccccc1)NC(=O)[C@H](Cc1c[nH]cn1)NC(=O)[C@H](CCC(=O)O)NC(=O)[C@H](CS)NC(=O)[C@H](CS)NC(=O)[C@H](CCCNC(=N)N)NC(=O)[C@@H]1CC(=O)N[C@@H](CCCNC(=N)N)C(=O)NCC(=O)N[C@@H](CC(=O)O)C(=O)N[C@H](Cc2ccc(O)cc2)C(=O)N1)C(N)=O [^99mTc-RGD-Arg-(Arg^11)CCMSH, metal not drawn] (RGD[dY]DRCCEH[dF]RWCRPV-NH2; lactam N-5)
stable	without affecting	52.1%	32.2 ± 5.98 %ID/g	CC(C)[C@H](NC(=O)[C@@H]1CCCN1C(=O)[C@H](CCCNC(=N)N)NC(=O)[C@H](CS)NC(=O)[C@H](Cc1c[nH]c2ccccc12)NC(=O)[C@H](CCCNC(=N)N)NC(=O)[C@@H](Cc1ccccc1)NC(=O)[C@H](Cc1c[nH]cn1)NC(=O)[C@H](CCC(=O)O)NC(=O)[C@H](CS)NC(=O)[C@H](CS)NC(=O)[C@H](CCCCN)NC(=O)[C@@H]1CC(=O)N[C@@H](CCCNC(=N)N)C(=O)NCC(=O)N[C@@H](CC(=O)O)C(=O)N[C@H](Cc2ccc(O)cc2)C(=O)N1)C(N)=O [^99mTc-RGD-Lys-(Arg^11)CCMSH, metal not drawn] (RGD[dY]DKCCEH[dF]RWCRPV-NH2; lactam N-5)
